{"source": "patent US12594258B2", "about": "“Inhibitors of MHC-I Nef downmodulation for treating HIV” (priority 2019, dated 2026)", "key": {"[1]": {"system": "lysosomal pH in human monocyte-derive macrophages (MDMs)", "test": "Lysosensor Yellow/Blue dextran analysis of lysosomal pH in MDMs", "assay_type": "cell-based", "protocol": "To measure the lysosomal pH in human monocyte-derive macrophages (MDMs), MDMs adhered to 24-well plates were exposed to 500 μg/mL Lysosensor Yellow/Blue dextran, 10,000 MW (ThermoFisher, L22460) in R10 for 24 hours. MDMs were then exposed to plecomacrolides for 1 hour and harvested with 0.05% Trypsin-EDTA (Gibco 25300054). Cells were washed twice in FACS buffer, and analyzed on a MoFlo Astrios flow cytometer, with blue signal excited from a 354 nm laser and yellow signal excited from a 405 nm laser. A standard curve was generated by resuspending MDMs in equilibration buffers of known pH as previously described. The ratio of blue:yellow fluorescence intensity was calculated for each cell, the median blue:yellow ratio for the cell population for each condition was obtained, and the lysosomal pH in MDMs was calculated for each condition using the standard curve.\nLysosensor Yellow/Blue Dextran Analysis of Lysosomal pH. To measure the lysosomal pH in human MDMs, MDMs adhered to 24-well plates were exposed to 500 μg/mL Lysosensor Yellow/Blue dextran, 10,000 molecular weight (MVV) in R10 for 24 h. MDMs were then exposed to plecomacrolides for 1 h and harvested with 0.05% Trypsin-(ethylenedinitrilo)tetraacetic acid (EDTA). Cells were washed twice in FACS buffer, and analyzed on a flow cytometer, with blue signal excited from a 354-nm laser and yellow signal excited from a 405-nm laser. A standard curve was generated by resuspending MDMs in equilibration buffers of known pH. The ratio of blue:yellow fluorescence intensity was calculated for each cell, the median blue:yellow ratio for the cell population for each condition was obtained, and the lysosomal pH in MDMs was calculated for each condition using the standard curve."}, "[2]": {"system": "HIV Nef"}, "[3]": {"system": "HIV Nef", "remark": "listed apart in the source"}, "[4]": {"system": "primary CD4+ T cells", "test": "MTT and flow cytometric viability assays in primary CD4+ T cells", "assay_type": "cell-based, human", "details": "Nef activity 24 hours, viability 72 hours", "protocol": "CD4^+ T cells were plated at a density of 1×10^5 cells in 200 μL R10-50 in flat-bottom 96-well plates 4 days post-stimulation with PHA. Cells were exposed to titrations of plecomacrolides or solvent controls for 72 hours in culture, at which point viability was assessed relative to solvent by MTT assay in experimental duplicates. Equal volumes of cell culture medium containing CD4^+ T cells were pelleted in 96-well round-bottom plates and incubated in 4.5 mg/mL MTT (Fisher, M6494) in R10 with no Phenol Red at 37° C. until the purple formazan signal was clearly visible. The absorbance of cell pellets resuspended in DMSO was measured at 595 nm on a Molecular Devices Emax precision microplate reader and compared a standard curve of known viable cell numbers to ensure the experimental samples fell within the linear range of the assay."}}, "note": "Entries after “also recorded” stand apart in the source; their conditions may differ. Read-outs that look alike come from different tables or passages of the source."}
{"molecule": "CO/C1=C\\C(C)=C\\[C@@H](C)[C@@H](O)[C@@H](C)C/C(C)=C/C=C/[C@H](OC)[C@@H]([C@@H](C)[C@@H](O)[C@H](C)[C@@]2(O)C[C@@H](O)[C@H](C)[C@@H](C(C)C)O2)OC1=O", "note": "[Baf A1]", "values": [{"measurement": "neutralization of lysosomal pH", "setting": "[1]", "result": "completely neutralize lysosomal pH"}, {"measurement": "EC50", "setting": "[1]; 1 hour, read-out: EC50 for lysosome neutralization", "result": 0.0185, "unit": "µM"}, {"measurement": "reduction of Nef-dependent HLA-A2 downmodulation", "setting": "[2]", "result": "over ten-fold"}, {"measurement": "reduction of Nef-dependent HLA-A2 downmodulation", "setting": "[3]; primary T cells transduced with ΔGPE", "result": "[…]"}, {"measurement": "EC50", "setting": "[3]; read-out: EC50 for Nef inhibition, HIV-infected primary CD4+ T cells, HLA-A2", "result": "[…]"}, {"measurement": "difference between the 50% effective and toxic concentrations (EC50 and TC50)", "setting": "[4]", "result": "[…]"}]}
{"molecule": "CC[C@H](C)C(=O)O[C@H]1C[C@@H](C)C=C2C=C[C@H](C)[C@H](CC[C@@H]3C[C@@H](O)CC(=O)O3)[C@H]21", "note": "[lovastatin, Lovastatin]", "values": [{"measurement": "level of MHC-I restoration compared to CMA", "setting": "[3]", "result": "a fraction of the levels achieved by CMA; also recorded: did not achieve comparable levels"}, {"measurement": "restoration of MHC-I", "setting": "[3]; 24 hours post-treatment", "result": "little restoration of MHC-I"}, {"measurement": "restoration of MHC-I to the surface of Nef-expressing cells", "setting": "[3]; 48 hours of exposure", "result": "partially restore MHC-I"}, {"measurement": "concentration required for restoration of MHC-I compared to CMA", "setting": "[3]; higher than CMA", "result": "2,000 fold"}]}
